Measurements reported in ChEMBL document CHEMBL5260832, “Hepatoprotective natural triterpenoids” (Eur J Med Chem, 2018).

Columns and labels:
Hepatocyte [1] = experiment: Hepatoprotective activity against D-GaIN/TNFalpha -induced cell death in mouse hepatocyte assessed as inhibition of cell death; assay type: functional, cell-based; parameters: Activity: concentration or dose not given beside the values
Hepatocyte [2] = experiment: Hepatoprotective activity against D-GaIN induced liver injury in rat hepatocyte assessed as decrease in ALT level at 30 to 120 uM; assay type: functional; details: dose 30-120 µM
Hepatocyte [3] = experiment: Hepatoprotective activity against D-GaIN induced liver injury in rat hepatocyte assessed as decrease in LDH level at 30 to 120 uM; assay type: functional; details: dose 30-120 µM
[4] = Hepatotoxicity in D-GaIN induced in Wistar rat model hepatocyte assessed as reduction in PLA2 level; assay type: toxicity, cell-based
Hepatocyte [5] = experiment: Hepatoprotective activity against D-GaIN/TNFalpha induced cell death in mouse hepatocytes assessed as reduction in TNF alpha level; assay type: functional, cell-based
[6] = Hepatotoxicity in rat assessed as reduction in GPT level at 1.0 mg/mL measured after 48 hrs (reference value: 291 IU/L); assay type: toxicity; details: in vivo
[7] = Hepatoprotective activity against D-Galactosamine-induced toxicity in rat WB-F344 cell assessed as cell damage at 10 uM by MTT colorimetric assay relative to control; assay type: functional

With CC1=CC[C@H]([C@@H](C)[C@H]2CC[C@@]3(C)CCC[C@H]4C(C)(C)O[C@@H]5CC(=O)O[C@@]54CC(=O)[C@H](O)C[C@]23C)OC1=O the Activity (Hepatocyte [1]) was 37.6%.
C[C@]1(C(=O)O)CC[C@]2(C)CC[C@]3(C)C(=CC(=O)[C@@H]4[C@@]5(C)CC[C@H](O[C@@H]6O[C@H](C(=O)O)[C@@H](O)[C@H](O)[C@H]6O[C@@H]6O[C@H](C(=O)O)[C@@H](O)[C@H](O)[C@H]6O)[C@](C)(CO)[C@@H]5CC[C@]43C)[C@@H]2C1 gave an Activity (Hepatocyte [2]) of 17.1 U/L, an Activity (Hepatocyte [3]) of 253.5 U/L and an IC50 [4] of 6.9 µM.
C[C@@H]1C(=O)[C@]2(C)CC[C@@]34C[C@@]56OC(=O)C[C@@H]5OC(C)(C)[C@H]6C[C@@H](O)[C@@H]3C(=O)[C@]3(O[C@@H]5[C@@H](OC(=O)[C@@H]5C)[C@H]1[C@@H]32)O4 showed an Activity (Hepatocyte [1]) of 37.6%.
C[C@H]1C(=O)O[C@@H]2[C@H]1O[C@@]13O[C@]4(CC[C@@]5(C)C(=O)[C@@](C)(O)[C@]2(O)[C@@H]15)C[C@@]12OC(=O)C[C@@H]1OC(C)(C)[C@H]2C[C@@H](O)[C@@H]4C3=O showed an Activity (Hepatocyte [1]) of 37.6%.
In the case of C=C(C)[C@@H]1CC[C@]2(C(=O)O)CC[C@]3(C)[C@H](CC[C@@H]4[C@@]5(C)C[C@@H](O)[C@H](O)[C@](C)(CO)[C@@H]5[C@H](O)C[C@]43C)[C@@H]12, the IC50 (Hepatocyte [1]; Mus musculus, Hepatocyte) is reported as 51.2 µM.
With C=C(C)[C@H](O)CC[C@@H](C)[C@H]1CC[C@@]2(C)[C@@H]3CC[C@H]4[C@](C)(C(=O)O)[C@@H](O)C[C@H](O)[C@@]45C[C@@]35CC[C@]12C the IC50 (Hepatocyte [5]) was 34.3 µM.
CC1(C)CC[C@]2(C(=O)O[C@@H]3O[C@H](CO[C@@H]4O[C@H](CO)[C@@H](O)[C@H](O)[C@H]4O)[C@@H](O)[C@H](O[C@@H]4O[C@H](CO)[C@@H](O)[C@H](O)[C@H]4O)[C@H]3O)CC[C@]3(C)C(=CC[C@@H]4[C@@]5(C)CC[C@H](O)[C@@](C)(C(=O)O)[C@@H]5CC[C@]43C)[C@@H]2C1 gave an Activity [6] of 279 IU/L.
Work on CC1(C)CC[C@]2(C(=O)O[C@@H]3O[C@H](CO[C@@H]4O[C@H](CO)[C@@H](O)[C@H](O)[C@H]4O)[C@@H](O)[C@H](O[C@@H]4O[C@H](CO)[C@@H](O)[C@H](O)[C@H]4O)[C@H]3O)CC[C@]3(C)C(=CC[C@@H]4[C@@]5(C)CC[C@H](O[C@@H]6O[C@H](CO)[C@@H](O)[C@H](O)[C@H]6O)[C@@](C)(C(=O)O)[C@@H]5CC[C@]43C)[C@@H]2C1 yielded an Activity [6] of 279 IU/L.
CC1(C)[C@@H](O[C@H]2O[C@H](C(=O)O)[C@@H](O)[C@H](O)[C@H]2O[C@@H]2O[C@H](C(=O)O)[C@@H](O)[C@H](O)[C@H]2O)CC[C@]2(C)[C@H]3C(=O)C=C4[C@@H]5C[C@@](C)(C(=O)O)CC[C@]5(C)CC[C@@]4(C)[C@]3(C)CC[C@@H]12 [GLYCYRRHIZIN] showed an Activity (Hepatocyte [2]) of 17.1 U/L, an Activity (Hepatocyte [3]) of 253.5 U/L and an IC50 [4] of 9.3 µM.
Work on CC(C)=CCC[C@@H](C(=O)O)[C@H]1CC[C@@]2(C)C3=C(CC[C@]12C)[C@@]1(C)CC[C@H](O)C(C)(C)[C@@H]1CC3 [TRAMETENOLIC ACID] yielded an Activity [7] of 75%.
For C[C@@]1(CO)CC[C@]2(C(=O)O[C@@H]3O[C@H](CO)[C@@H](O)[C@H](O)[C@H]3O)CC[C@]3(C)C(=CC[C@@H]4[C@@]5(C)CC[C@H](O)[C@@](C)(C(=O)O)[C@@H]5CC[C@]43C)[C@@H]2C1, the Activity [6] was 206 IU/L.
For C[C@@H]1C(=O)O[C@H]2[C@@H]1O[C@]13O[C@@]4(CC[C@]5(C)C(=O)[C@](C)(O)[C@@]2(O)[C@H]15)C[C@]12OC(=O)C[C@H]1OC(C)(C)[C@@H]2C[C@@H]1O[C@@]14C3=O, the Activity (Hepatocyte [1]) was 37.6%.
For CC(C)=CCC[C@@H](C)[C@H]1CC[C@@]2(C)C3=C(CC[C@]12C)[C@@]1(C)CC[C@H](O)C(C)(C)[C@@H]1CC3 [LANOSTEROL], the Activity [7] was 74.8%.
COC(=O)[C@]1(C)[C@@H](O)C[C@H](O)[C@]23C[C@]24CC[C@]2(C)[C@@H]([C@H](C=O)C/C=C/C(C)(C)O)CC[C@@]2(C)[C@@H]4CC[C@@H]13 gave an IC50 (Hepatocyte [5]) of 45.7 µM.
In the case of C[C@@H]1C(=O)O[C@H]2[C@@H]1O[C@]13O[C@@]4(CC[C@]5(C)C(=O)[C@@](C)(O)[C@H]2[C@H]15)C[C@]12OC(=O)C[C@H]1OC(C)(C)[C@@H]2C[C@@H]1O[C@@]14C3=O, the Activity (Hepatocyte [1]) is reported as 37.6%.
With CC1(C)[C@@H](O[C@@H]2O[C@H](C(=O)O)[C@@H](O)[C@H](O)[C@H]2O[C@@H]2O[C@H](C(=O)O)[C@@H](O)[C@H](O)[C@H]2O)CC[C@]2(C)[C@H]3C(=O)C=C4[C@@H]5C[C@](C)(C(=O)O)CC[C@]5(C)CC[C@@]4(C)[C@]3(C)CC[C@@H]12 the Activity (Hepatocyte [2]) was 17.1 U/L, the Activity (Hepatocyte [3]) was 253.5 U/L and the IC50 [4] was 16.9 µM.
With CC(=O)O[C@@H]1C[C@](C)(C(=O)O)C[C@H]2C3=CC(=O)[C@@H]4[C@@]5(C)CC[C@H](O[C@@H]6O[C@H](C(=O)O)[C@@H](O)[C@H](O)[C@H]6O[C@@H]6O[C@H](C(=O)O)[C@@H](O)[C@H](O)[C@H]6O)C(C)(C)[C@@H]5CC[C@@]4(C)[C@]3(C)CC[C@@]12C the Activity (Hepatocyte [2]) was 16.5 U/L, the Activity (Hepatocyte [3]) was 242.8 U/L and the IC50 [4] was 27.1 µM.
CC(C)C(O)(CO)CC[C@@H](C)[C@H]1CC[C@@]2(C)[C@@H]3CC[C@H]4[C@H](C(=O)O)[C@@H](O)C[C@H](O)[C@@]45C[C@@]35CC[C@]12C (stereo partly drawn) showed an IC50 (Hepatocyte [5]) of 67.6 µM.
Work on CC(C)=CC[C@H](O)[C@@H](C)[C@H]1CC[C@@]2(C)C3=C(CC[C@]12C)[C@@]1(C)CC[C@H](O)C(C)(C)[C@@H]1CC3 yielded an Activity [7] of 56.3%.
In the case of C=C(C)[C@@H](O)CC[C@@H](CO)[C@H]1CC[C@@]2(C)[C@@H]3CC[C@H]4[C@](C)(C(=O)OC)[C@@H](O)C[C@H](O)[C@@]45C[C@@]35CC[C@]12C [METHYL QUADRANGULARATE], the IC50 (Hepatocyte [5]) is reported as 337 µM.
With CC(C)=C(C)[C@H]1C[C@@H]([C@H]2CC[C@@]3(C)C4=C(CC[C@]23C)[C@@]2(C)CC[C@H](O)C(C)(C)[C@@H]2CC4)C(=O)O1 the Activity [7] was 71.9%.
With CC1(C)CC[C@]2(C(=O)O[C@@H]3O[C@H](CO)[C@@H](O)[C@H](O)[C@H]3O)CC[C@]3(C)C(=CC[C@@H]4[C@@]5(C)CC[C@H](O)[C@@](C)(C(=O)O)[C@@H]5CC[C@]43C)[C@@H]2C1 the Activity [6] was 137 IU/L.
C=C(C)C(=O)CC[C@@H](C=O)[C@H]1CC[C@@]2(C)[C@@H]3CC[C@H]4[C@](C)(C(=O)OC)[C@@H](O)C[C@H](O)[C@@]45C[C@@]35CC[C@]12C gave an IC50 (Hepatocyte [5]) of 89.3 µM.
Molecule CC(C)=CC[C@@H](O)[C@@H](C)[C@H]1CC[C@@]2(C)C3=C(C(=O)C[C@]12C)[C@@]1(C)CC[C@H](O)C(C)(C)[C@@H]1CC3 has an Activity [7] of 81.2%.
CC1(C)CC[C@]2(C(=O)O[C@@H]3O[C@H](CO[C@@H]4O[C@H](CO)[C@@H](O)[C@H](O)[C@H]4O)[C@@H](O)[C@H](O)[C@H]3O)CC[C@]3(C)C(=CC[C@@H]4[C@@]5(C)CC[C@H](O[C@@H]6O[C@H](CO)[C@@H](O)[C@H](O)[C@H]6O)[C@@](C)(C(=O)O)[C@@H]5CC[C@]43C)[C@@H]2C1 showed an Activity [6] of 279 IU/L.
